MIC data for two compounds are collected here from patent US6825225B2, “Bicyclic isoxazolinones as antibacterial agents” (Pharmacia & Upjohn Company, priority 2000, dated 2004).

Converted amounts (≈) assume the structure as drawn.

The experiment concerns Methicillin-susceptible S. aureus UC®9213. The experiment is described as follows: Minimum inhibitory concentration (MIC) by agar dilution. The following applies: Staphylococcus aureus, UC9213, lowest concentration that inhibits visible growth, read-out: Antibacterial Activity, Minimum Inhibitory Concentration, S.A. In kind it is cell-based. The source says:
The isoxazolinone antibacterial agents of this invention have useful activity against a variety of organisms. The in vitro activity of compounds of this invention can be assessed by standard testing procedures such as the determination of minimum inhibitory concentration (MIC) by agar dilution as described in “Approved Standard. Methods for Dilution Anti microbial Susceptibility Tests for Bacteria That Grow Aerobically”, 3rd. ed., published 1993 by the National Committee for Clinical Laboratory Standards, Villanova, Pa., USA. S.A is Methicillin-susceptible S. aureus UC®9213. Minimum inhibitory concentration refers to lowest concentration of drug (μg/mL) that inhibits visible growth of the organism.

As to `CN[C@H](CC(C)C)C(=O)N[C@H]1C(=O)N[C@@H](CC(N)=O)C(=O)N[C@H]2C(=O)N[C@H]3C(=O)N[C@H](C(=O)N[C@H](C(=O)O)c4cc(O)cc(O)c4-c4cc3ccc4O)[C@H](O)c3ccc(c(Cl)c3)Oc3cc2cc(c3O[C@@H]2O[C@H](CO)[C@@H](O)[C@H](O)[C@H]2O[C@H]2C[C@](C)(N)[C@H](O)[C@H](C)O2)Oc2ccc(cc2Cl)[C@H]1O` [vancomycin], the MIC amounted to 1 µg/mL (≈ 0.69 µM).
As for `CC(=O)NCn1cc(-c2ccc3c(c2)CC(C)N3C=O)c(=O)o1` (centres unmarked) [Example 1, N-{[4-(N-formyl-2-methylindolinyl)-5-oxo-isoxazol-2-yl]methyl}acetamide], the figure is 2 µg/mL (≈ 6.34 µM).
